From patent US9862740B2, “Process for preparing novel forms of tiacumicin B” (Olon S.P.A., priority 2014, dated 2018)

Experiment: Particle size distribution (Psd comparison) of Tiacumicin B crystals
Format: physicochemical
Conditions: in µm (unit assumed)
Protocol: 3000 g of pure Tiacumicin B were dissolved in about 40 L of CH3OH. 80 L of (C2H5)2O were added under stirring to the solution at the room temperature. The solution was then heated at 39° C. and the mixer speed was set at 20 rpm; 160 L of n-Pentane were added in about 30 minutes. The mixer speed was then set at 15 rpm and the solution was cooled at 5° C. in about 5 hours. The suspension was then filtered and product dried under vacuum. The crystal obtained has a not well defined crystal shape and a high amount of fine that make the product difficult to formulate. […] of pure Tiacumicin B were dissolved in 33 mL of CH3OH. 66 mL of (C2H5)2O were added under stirring to the solution at the room temperature. The solution was then heated at 39° C. and the mixer speed was set at 400 rpm; 132 mL of n-Pentane were added in about 30 minutes. The mixer speed was then set at 200 rpm and the solution was cooled at 5° C. in about 60 minutes. The suspension was heated at 30° C. and maintained at this temperature for about 30 minutes; then the suspension was cooled at 5° C. in about 60 minutes. The suspension was heated at 25° C. and maintained at this temperature for about 30 minutes; then the suspension was cooled at 5° C. in about 60 minutes. The suspension was heated at 15° C. and maintained at this temperature for about 30 minutes; then the suspension was cooled at 5° C. in about 60 minutes and maintained in this condition over night. The crystals obtained has a different more homogeneous and regular crystal habit respect to that obtained with the standard process and an improved psd (see FIGS. 3 and 4 and Table). 2000 g of pure Tiacumicin B were dissolved in 26 L of CH3OH. 52 L of (C2H5)2O were added under stirring to the solution at the room temperature. The solution was then heated at 39° C. and the mixer speed was set at 20 rpm; 130 L of n-Pentane were added in about 30 minutes. The mixer speed was then set at 8 rpm and the solution was cooled at 35° C. and maintained at this temperature for about 60 minutes. The suspension was cooled at 30° C. and maintained at this temperature for about 60 minutes. Then the suspension was cooled at 25° C. and maintained at this temperature for about 30 minutes. Then the suspension was cooled at 20° C. and maintained at this temperature for about 30 minutes. Then the suspension was cooled at 15° C. and maintained at this temperature for about 30 minutes. Then the suspension was cooled at 10° C. and maintained at this temperature for about 30 minutes. Then the suspension was cooled at 5° C. and maintained at this temperature for about 30 minutes. The suspension was heated at 30° C. and maintained at this temperature for about 30 minutes; then the suspension was cooled at 5° C. in about 60 minutes. The suspension was heated at 25° C. and maintained at this temperature for about 30 minutes; then the suspension was cooled at 5° C. in about 60 minutes. The suspension was heated at 15° C. and maintained at this temperature for about 30 minutes; then the suspension was cooled at 5° C. in about 60 minutes and maintained in this condition over night. The crystals obtained has a different more homogeneous and regular crystal habit respect to that obtained with the standard process and an improved psd (see FIGS. 3 and 4 and Table).

Row | D(0.1) | D(0.5) | D(0.9) | Structure (SMILES)
1 | 3.90 | 11.36 | 27.35 | CCc1c(Cl)c(O)c(Cl)c(O)c1C(=O)O[C@H]1[C@H](O)[C@H](OC)[C@H](OC/C2=C\C=C\C[C@H](O)/C(C)=C/[C@H](CC)[C@@H](O[C@@H]3OC(C)(C)[C@@H](OC(=O)C(C)C)[C@H](O)[C@@H]3O)/C(C)=C/C(C)=C/C[C@@H]([C@@H](C)O)OC2=O)O[C@@H]1C [Example 1, Tiacumicin B]
2 | 10.82 | 35.94 | 73.79 | CCc1c(Cl)c(O)c(Cl)c(O)c1C(=O)O[C@H]1[C@H](O)[C@H](OC)[C@H](OC/C2=C\C=C\C[C@H](O)/C(C)=C/[C@H](CC)[C@@H](O[C@@H]3OC(C)(C)[C@@H](OC(=O)C(C)C)[C@H](O)[C@@H]3O)/C(C)=C/C(C)=C/C[C@@H]([C@@H](C)O)OC2=O)O[C@@H]1C [Example 2, Tiacumicin B]
3 | 7.04 | 23.98 | 55.27 | CCc1c(Cl)c(O)c(Cl)c(O)c1C(=O)O[C@H]1[C@H](O)[C@H](OC)[C@H](OC/C2=C\C=C\C[C@H](O)/C(C)=C/[C@H](CC)[C@@H](O[C@@H]3OC(C)(C)[C@@H](OC(=O)C(C)C)[C@H](O)[C@@H]3O)/C(C)=C/C(C)=C/C[C@@H]([C@@H](C)O)OC2=O)O[C@@H]1C [Example 3, Tiacumicin B]
